Data from publication PMC6063448, “Antimicrobial activity of linear lipopeptides derived from BP100 towards plant pathogens” (PLoS ONE, 2018).

Key:
[1] = system: defense-related genes in tomato plants; test: Induction of defense gene expression of tomato plants (RT-qPCR); type: in vivo, tomato cv. Rio Grande; conditions: for BCB gene expression, fold induction / ERT3 gene expression, fold induction / GluA gene expression, fold induction / Harp gene expression, fold induction / LOX gene expression, fold induction / Osm2 gene expression, fold induction / PPO gene expression, fold induction / PR1 gene expression, fold induction / PinII gene expression, fold induction / Sub1 gene expression, fold induction / Tas14 gene expression, fold induction: tomato leaves sprayed, 24 h, peptides and flg15 125 μM, JA 2.5 mM, ASM 300 mg/L, ΔΔCt relative to actin, above 2 = overexpression; for Defense gene expression in tomato plants (genes overexpressed): significant overexpression (REST2009)
Procedure: Seeds of tomato cv. Rio Grande plants were sown in hydroponic seed plugs (rockwool), germinated and grown under controlled greenhouse conditions (25 ± 2°C, 16 h light / 15 ± 2°C, 8 h dark, and 60% RH). Two-week old seedlings (two cotyledons) were transplanted into rockwool plugs (7.5×7.5×6.5 cm, Grodan Iberica). The experimental design consisted of three replicates of three plants per treatment. After two weeks, tomato leaves were sprayed with aqueous solutions of BP100, 9 selected derivatives and flg15 at 125 μM, jasmonic acid at 2.5 mM (Sigma-Aldrich, Sant Louis, Missouri, UE), and acybenzolar-S-methyl at 300 mg/L (Syngenta, Basel, Switzerland), until the run-off point. Water-sprayed plants were used as not treated controls. Twenty-four hours after product application leaf samples were collected and processed to extract RNA for RT-qPCR assays. Plant material was ground to a fine powder in liquid nitrogen with the Tissuelyzer II system (Qiagen). Total RNA was extracted from leaves using PureLink Plant RNA Reagent (Invitrogen, Life Technologies) according to the manufacturer’s manual. The RNA was solubilized in RNAse free water and was routinely subjected to DNAse treatment (Ambion® Turbo DNA-free™, Life Technologies) to remove any contaminant DNA. In each step, the RNA was quantified using a Nanodrop N-2000 spectrophotometer, and its integrity verified by denaturing agarose gel electrophoresis. First-strand of complementary DNA (cDNA) was generated from leave RNA using reverse transcriptase (High Capacity cDNA Reverse Transcription Kit, Invitrogen) according to the manufacturer’s manual.
To test gene defense induction in the treated tomato plants, a qPCR assay was performed. Quantitative PCR was carried out in a fluorometric thermal cycler (qPCR Quant Studio 5, Applied Biosystems) by using a Mix SYBR®Green PCR Master Mix (Applied Biosystems). The total reaction volume of this PCR reaction was 20 μL and the reaction mixture was 1 μL of each primer set at the adequate concentration, 10 μL of MixSyber Green, 6 μL of distilled water and 2 μL of cDNA. Melting curve analysis was performed after amplification to verify amplification specificity. A constitutive gene (actin gene) was used as reference control, and the following genes implicated in plant defense response were analyzed: Pathogenesis-related protein-1 (PR1), Harpin (Harp), Polyphenol oxidase (PPO), Subtilisin-like protease (Sub1), Blue copper binding-protein (BCB), Osmotin (Osm2), Acidic β-1,3 endoglucanase (GluA), Lypoxigenase (LOX), Protein inhibitor II (PinII), Dehydrin (Tas14) and Ethylene response transcription factor (ERT3). […] For each gene system, the concentration of the primer pair was optimized. The primer concentration was 100 nM for all the genes except for the GluA, Harp, PR1 and actin genes which optimized concentration was 300 nM. A calibration curve was prepared by cloning the corresponding DNA in the pSpark cloning vector (Canvax, Córdoba, Spain) according to the manufacturer instructions, which was then used to transform E. coli DH5α by standard procedures. The number of plasmid copies were quantified after purification from E. coli (QIAGEN Iberia, S. L., Madrid, Spain), and appropriate dilutions were prepared to obtain the standard curve. […] Relative quantification of gene expression was done using the ΔΔCt method. Each biological repetition treatment was analyzed in duplicate. The mean of the Ct values obtained were used to estimate the fold change value of the endogenous reference gene (actin) and the target plant defense genes.

[2] = system: Fusarium oxysporum f. sp. lycopersici FOL 3 race 2; test: MIC, antifungal growth inhibition in microtiter plates (PDB); type: cell-based; conditions: Fo, 22°C, seven days, OD 600 nm, lowest concentration with no growth, given as interval of tested concentrations, three replicates, experiment repeated twice
Summary of the method: (§1)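 Conidial suspensions (10^3 conidia/mL P. expansum, 10^4 F. oxysporum) incubated with peptides in PDB with 0.003% chloramphenicol at 22 °C for seven days, OD600 read every 2 h. MIC is the lowest concentration with no growth at the end; triplicates, experiment repeated twice.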

[3] = system: Penicillium expansum EPS26; test: as above; type: cell-based; conditions: Pe, 22°C, seven days, OD 600 nm, lowest concentration with no growth, given as interval of tested concentrations, three replicates, experiment repeated twice
Summary of the method: as §1

What does the source list for `CCCC(=O)NCCCC[C@H](NC(=O)[C@H](CCCCN)NC(=O)[C@H](CC(C)C)NC(=O)[C@@H](NC(=O)[C@H](CCCCN)NC(=O)[C@H](CCCCN)NC(=O)[C@H](Cc1ccccc1)NC(=O)[C@H](CC(C)C)NC(=O)[C@H](CCCCN)NC(=O)[C@H](CCCCN)NC(C)=O)[C@@H](C)CC)C(=O)N[C@@H](CC(C)C)C(N)=O` [BP389, Ac-KKLFKKILKK(COC3H7)L-NH2]?
BCB gene expression, fold induction [1]: 2.1; ERT3 gene expression, fold induction [1]: 0.1; GluA gene expression, fold induction [1]: 0.3; Harp gene expression, fold induction [1]: 0.9; LOX gene expression, fold induction [1]: 1.2; Osm2 gene expression, fold induction [1]: 1.0; PPO gene expression, fold induction [1]: 0.5; PR1 gene expression, fold induction [1]: 0.3; PinII gene expression, fold induction [1]: 2.8; Sub1 gene expression, fold induction [1]: 0.5; Tas14 gene expression, fold induction [1]: 0.7; Number of defense-related genes significantly induced ([1]; treatment at 125 μM): 2; Defense gene expression in tomato plants (genes overexpressed) ([1]; treatment at 125 μM): PinII and BCB; MIC [2]: 1.6 to 3.1 µM; MIC [3]: 6.2 to 12.5 µM

For `CCCC(=O)NCCCC[C@H](NC(=O)[C@H](Cc1ccc(O)cc1)NC(=O)[C@H](CCCCN)NC(=O)[C@H](CC(C)C)NC(=O)[C@@H](NC(=O)[C@H](CCCCN)NC(=O)[C@H](CCCCN)NC(=O)[C@H](Cc1ccccc1)NC(=O)[C@H](CC(C)C)NC(=O)[C@H](CCCCN)NC(=O)[C@H](CCCCN)NC(C)=O)[C@@H](C)CC)C(N)=O` [BP390, Ac-KKLFKKILKYK(COC3H7)-NH2], which “BCB gene expression, fold induction” value [1] is on record?
Its value is 0.6.

What about the “ERT3 gene expression, fold induction” value [1] of the same compound?
The value was 0.7.

What about the “GluA gene expression, fold induction” value [1] of the same compound?
Its value is 0.6.

And the “Harp gene expression, fold induction” value [1]?
The value was 0.5.

And the “LOX gene expression, fold induction” value [1]?
Its value is 1.2.

What about the “Osm2 gene expression, fold induction” value [1] of the same compound?
The value was 3.0.

And the “PPO gene expression, fold induction” value [1]?
The value was 0.9.

And the “PR1 gene expression, fold induction” value [1]?
Its value is 0.2.

And the “PinII gene expression, fold induction” value [1]?
Its value is 0.2.

What about the “Sub1 gene expression, fold induction” value [1] of the same compound?
Its value is 0.7.

What about the “Tas14 gene expression, fold induction” value [1] of the same compound?
Its value is 1.0.

What about the “Defense gene expression in tomato plants (genes overexpressed)” value ([1]; treatment at 125 μM) of the same compound?
The value was “one gene (Osm2, Tas14 or BCB)”.

What about the MIC [2] of the same compound?
The MIC was 0.8 to 1.6 µM.

What about the MIC [3] of the same compound?
Its MIC is 6.2 to 12.5 µM.

`CCCCCCCCCCCC(=O)NCCCC[C@H](NC(=O)[C@H](CC(C)C)NC(=O)[C@@H](NC(=O)[C@H](CCCCN)NC(=O)[C@H](CCCCN)NC(=O)[C@H](Cc1ccccc1)NC(=O)[C@H](CC(C)C)NC(=O)[C@H](CCCCN)NC(=O)[C@H](CCCCN)NC(C)=O)[C@@H](C)CC)C(=O)N[C@@H](Cc1ccc(O)cc1)C(=O)N[C@@H](CC(C)C)C(N)=O` [BP400, Ac-KKLFKKILK(COC11H23)YL-NH2] was tested. Which “BCB gene expression, fold induction” value [1] did it give?
Its value is 0.6.

And the “ERT3 gene expression, fold induction” value [1]?
Its value is 0.2.

And the “GluA gene expression, fold induction” value [1]?
The value was 0.1.

What about the “Harp gene expression, fold induction” value [1] of the same compound?
The value was 1.4.

What about the “LOX gene expression, fold induction” value [1] of the same compound?
Its value is 1.1.

And the “Osm2 gene expression, fold induction” value [1]?
The value was 0.9.

What about the “PPO gene expression, fold induction” value [1] of the same compound?
The value was 1.4.

What about the “PR1 gene expression, fold induction” value [1] of the same compound?
The value was 0.1.

What about the “PinII gene expression, fold induction” value [1] of the same compound?
The value was 1.1.

And the “Sub1 gene expression, fold induction” value [1]?
The value was 0.5.

What about the “Tas14 gene expression, fold induction” value [1] of the same compound?
Its value is 8.3.

And the “Defense gene expression in tomato plants (genes overexpressed)” value ([1]; treatment at 125 μM)?
The value was “one gene (Osm2, Tas14 or BCB)”.

And the MIC [2]?
The MIC was 6.2 to 12.5 µM.

What about the MIC [3] of the same compound?
The MIC was over 25 µM.
